The values below come from US20230044787A1, “TRICYCLE DIHYDROIMIDAZOPYRIMIDONE DERIVATIVE, PREPARATION METHOD THEREOF, PHARMACEUTICAL COMPOSITION AND USE THEREOF” (priority 2019, published 2023).

Molecules are shown by their SMILES.

The target in the assay is T1, Lp-PLA2 (Homo sapiens, UniProt Q13093).
T1 construct: aliquoted and thawed 40 μL of pooled human plasma was previously added; from tissue; host or cells: pooled human plasma
T1 sequence (Q13093 22-441): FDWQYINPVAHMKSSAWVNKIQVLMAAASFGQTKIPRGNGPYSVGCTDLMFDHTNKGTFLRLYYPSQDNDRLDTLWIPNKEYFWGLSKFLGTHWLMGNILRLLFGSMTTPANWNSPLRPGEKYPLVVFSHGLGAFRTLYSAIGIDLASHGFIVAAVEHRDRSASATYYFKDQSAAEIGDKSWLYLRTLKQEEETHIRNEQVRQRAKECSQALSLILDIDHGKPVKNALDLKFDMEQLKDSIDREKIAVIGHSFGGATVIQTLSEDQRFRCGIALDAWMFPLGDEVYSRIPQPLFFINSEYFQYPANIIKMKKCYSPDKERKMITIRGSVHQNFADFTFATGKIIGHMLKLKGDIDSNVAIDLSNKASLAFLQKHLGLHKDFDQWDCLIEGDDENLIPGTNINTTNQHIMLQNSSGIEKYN
Put plainly: Lipoprotein-associated phospholipase A2 (Lp-PLA2) human plasma assay (Thio-PAF assay). It counts as biochemical. The conditions noted are these: Lp-PLA2 human plasma assay (Thio-PAF), pooled human plasma, 30-min pre-incubation at room temperature. Here is the method: Lipoprotein-Associated Phospholipase A2 (Lp-PLA2) Human Plasma Assay
The amount of sulfhydryl groups is continuously determined by the reaction with CPM (7-diethylamino-3-(4′-maleimidophenyl)-4-methylcoumarin), and the CPM is a maleimide of which fluorescence increases after Michael addition of sulfhydryl group. This assay can detect Lp-PLA2 activity in human plasma, as determined by specific inhibition of Lp-PLA2 inhibitors.
Thio-PAF assay was performed as quenched 75 μL assay. Compound source plate was prepared for each compound by preparing 1:3 (by volume) serial dilutions in pure DMSO in a 96-well microplate. The compound on the source plate was diluted 20-fold by transferring 3 μL of the compound from the compound source plate into a 96-well microplate pre-added with 57 μL of assay buffer by Rainin multichannel pipette. The assay buffer described above consisted of 50 mM HEPES, pH 7.4, 150 mM NaCl, 1 mM CHAPS. 1 μL of the 20-fold diluted compound was transferred by Rainin multichannel pipette into a 96-well Greiner 655076 (black) microplate to which aliquoted and thawed 40 μL of pooled human plasma was previously added. The plate was shaken for 20 seconds on a microplate shaker to mix well. After a 30-min pre-incubation at room temperature, 10 μL of substrate solution was added to the 96-well Greiner 655076 (black) microplate by Rainin multichannel pipette, in which the substrate solution contained 2.5 mM 2-thio-PAF [from ethanol stock], 32 μM CPM [from DMSO stock], and 3.2 mM NEM (N-ethylmaleimide) [freshly prepared in DMSO per experiment] in assay buffer consisting of 50 mM HEPES, pH 7.4; 150 mM NaCl; 1 mM CHAPS. After 2 min, the reaction was quenched with […] of 5% trifluoroacetic acid (TFA) in water. The plate was centrifuged at 2000 rpm for 1 minute. The plate was read at ex:380/em:485 using a Biotek Synergy H1 (H1MF) microplate reader. IC50 data, curves and QC analysis were performed using GraphPad Prism 6.0 and Excel.
A word on the IC50: it is the concentration at which inhibition is half-maximal. `CCC12CCCN1c1cc(OCc3cc(F)c(Oc4cnc(C(F)(F)F)nc4)c(F)c3)nc(=O)n1C2` (stereo not shown) [Example 64, 3-((3,5-difluoro-4-((2-(trifluoromethyl)pyrimidin-5-yl)oxy)benzyl)oxy)-8a-ethyl-7,8,8a,9-tetrahydro-1H,6H-pyrrolo[1′,2′:3,4]imidazo [1,2-c]pyrimidin-1-one]: the IC50 came to 22.6 nM.

Consider `CC12CCCN1c1cc(OCc3cc(F)c(Oc4ccnc(C(F)(F)F)c4)c(F)c3)nc(=O)n1C2` (stereo not shown) [Example 54, 3-((3,5-difluoro-4-((2-(trifluoromethyl)pyridin-4-yl)oxy)benzyl)oxy)-8a-methyl-7,8,8a,9-tetrahydro-1H,6H-pyrrolo[1′,2′:3,4]imidazo [1,2-c]pyrimidin-1-one], for which the half-maximal inhibitory concentration (IC50) came out at 7.6 nM.

With `O=c1nc(OCc2ccc(Oc3ccnc(C(F)(F)F)c3)cc2F)cc2n1CC13CC(CN21)C3` [Example 105, 3-((2-fluoro-4-((2-(trifluoromethyl)pyridin-4-yl)oxy)benzyl)oxy)-7,8-dihydro-1H,6H,9H-7,8a-methanopyrrolo[1′,2′:3,4] imidazo[1,2-c]pyrimidin-1-one], the IC50 worked out at 10.8 nM.

Take `O=c1nc(OCc2cc(F)c(F)c(F)c2)cc2n1C[C@]13CO[C@H](CN21)C3` [Example 24, (3S,11aR)-7-((3,4,5-trifluorobenzyl)oxy)-3,4-dihydro-1H,9H,11H-3,11a-methanopyrimido[6′,1′:2,3] imidazo[5,1-c][1,4]oxazin-9-one]: the IC50 came to 13.2 nM.

On to `N#Cc1cc(COc2cc3n(c(=O)n2)CC24CC(F)(CN32)C4)ccc1F` [Example 160], for which the concentration for half-maximal inhibition (IC50) is 3.8 nM.

With `N#Cc1cc(COc2cc3n(c(=O)n2)C[C@]24CO[C@H](CN32)C4)ccc1F` [Example 193], the half-maximal inhibitory concentration (IC50) was 5.2 nM.

In the case of `O=c1nc(OCCc2ccc(Oc3ccnc(C(F)(F)F)c3)c(F)c2)cc2n1C[C@]13CO[C@H](CN21)C3` [Example 156], the half-inhibitory concentration (IC50) worked out at 5.7 nM.

Turning to `CC12CCCCN1c1cc(OCc3ccc(Oc4cccc(C(F)(F)F)c4)c(C#N)c3)nc(=O)n1C2` (stereo not shown) [Example 71, 5-(((-9a-methyl-1-oxo-6,7,8,9,9a,10-hexahydro-1H-pyrido[1′,2′:3,4]imidazo [1,2-c]pyrimidin-3-yl)oxy)methyl)-2-(3-(trifluoromethyl)phenoxy) benzonitrile], the IC50 worked out at 7.9 nM.

On to `O=c1nc(OCCc2cc(F)c(Oc3ccnc(C(F)(F)F)c3)c(F)c2)cc2n1CC13CC(CN21)C3` [Example 169, 3-(3,5-Difluoro-4-((2-(trifluoromethyl)pyridin-4-yl)oxy)phenethoxy)-7,8-dihydro-1H1,6H1,9H-7,8a-methanopyrrolo[1′, 2′:3, 4]imidazo[1,2-c]pyrimidin-1-one], for which the IC50 turned out to be 4.9 nM.

`O=c1nc(OCc2cc(F)c(Oc3cnc(C(F)(F)F)nc3)c(F)c2)cc2n1C[C@]13CO[C@H](CN21)C3` [Example 7, (3S,11aR)-7-((3,5-difluoro-4-((2-(trifluoromethyl)pyrimidin-5-yl)oxy)benzyl)oxy)-3,4-dihydro-1H,9H,11H-3,11a-methanopyrimido[6′,1′:2,3] imidazo[5,1-c][1,4]oxazin-9-one]: the IC50 was determined as 2.5 nM.

For the compound `COc1c(OCc2cc(F)c(F)c(F)c2)nc(=O)n2c1N1C[C@@H]3C[C@]1(CO3)C2` [Example 114, (3S,11aR)-7-((3,4,5-trifluorobenzyl)oxy)-6-methoxy-3,4-dihydro-1H,9H,11H-3,11a-methanopyrimido[6′,1′:2,3] imidazo[5,1-c][1,4]oxazin-9-one], the IC50 stood at 5.7 nM.

Turning to `O=c1nc(OCc2cc(F)c(Oc3ccc(Cl)c(F)c3)c(F)c2)cc2n1C[C@]13CO[C@H](CN21)C3` [Example 143], the IC50 amounted to 2.5 nM.

With `O=c1nc(OCCc2ccc(Oc3ccnc(C(F)(F)F)c3)cc2)cc2n1C[C@]13CO[C@H](CN21)C3` [Example 100, (3S,11aR)-7-(4-(2-(trifluoromethyl)pyridin-4-yloxy)phenethoxy)-3,4-dihydro-1H,9H,11H-3,11a-methanopyrimido[6′-,1′:2,3] imidazo[5,1-c][1,4]oxazin-9-one], the IC50 was 5.9 nM.

For `N#Cc1cc(COc2cc3n(c(=O)n2)CC24CCC(CC2)N34)ccc1F` [Example 163, 2-fluoro-5-(((1-oxo-7,8-dihydro-1H,6H,9H-6,8a-ethanopyrrolo[1′,2′:3,4]imidazo[1,2-c]pyrimidin-3-yl)oxy)methyl)benzonitrile], the IC50 was found to be 2.4 nM.

On to `O=c1nc(OCc2ccc(Oc3ccc(F)c(F)c3)c(F)c2)cc2n1C[C@]13CO[C@H](CN21)C3` [Example 146, (3S,11aR)-7-((4-(3,4-difluorophenoxy)-3-fluorobenzyl)oxy)-3,4-dihydro-1H,9H,11H-3,11a-methanopyrimido[6′,1′:2,3] imidazo[5,1-c][1,4]oxazin-9-one], for which the IC50 is 2.7 nM.

For `N#Cc1cc(COc2cc3n(c(=O)n2)C[C@]24CO[C@H](CN32)C4)ccc1Oc1ccc(Cl)c(C(F)(F)F)c1` [Example 18, 5-((((3S,11aR)-9-oxo-3,4-dihydro-1H,9H,11H-3,11a-methanopyrimido[6′,1′:2,3]imidazo[5,1-c][1,4]oxazin-7-yl)oxy)methyl)-2-(4-chloro-3-(trifluoromethyl)phenoxy) benzonitrile], the IC50 turned out to be 3.5 nM.

Turning to `CCC12CCCN1c1cc(OCc3ccc(Oc4cc(C#N)cc(C(F)(F)F)c4)c(F)c3)nc(=O)n1C2` (stereo not shown) [Example 65], the 50% inhibitory concentration (IC50) turned out to be 12.1 nM.

As for `N#CC12CN3c4cc(OCc5ccc(Oc6ccnc(C(F)(F)F)c6)c(F)c5)nc(=O)n4CC3(C1)C2` [Example 200, 3-((3-fluoro-4-((2-(trifluoromethyl)pyridin-4-yl)oxy)benzyl)oxy)-1-oxo-1H,6H,9H-7,8a-methanopyrrolo[1′,2′:3,4]imidazo[1,2-c] pyrimidine-7(8H)-carbonitrile], the IC50 is 4.4 nM.

`O=c1nc(OCc2ccc(Oc3ccnc(C(F)(F)F)c3)c(F)c2)cc2n1C[C@@]13C[C@@H](CN21)N(Cc1ccccc1)C3` [Example 178, (3S,11aS)-2-benzyl-7-((3-fluoro-4-((2-(tri-fluoromethyl)pyridin-4-yl)oxy)benzyl)oxy)-1,2,3,4-tetrahydro-9H,11H-3,11a-methano-pyrazino[1′,2′:3,4]imidazo[1,2-c]pyrimidin-9-one]: the half-maximal inhibitory concentration (IC50) came out at 6.2 nM.

With `O=c1nc(OCc2ccc(Oc3cccc(C(F)(F)F)c3)c(F)c2)cc2n1CC13CC(CN21)C3` [Example 124, 3-((3-fluoro-4-(3-(trifluoromethyl)phenoxy)benzyl)oxy)-7,8-dihydro-1H,6H,9H-7,8a-methanopyrrolo[1′,2′:3,4] imidazo[1,2-c]pyrimidin-1-one], the IC50 came to 6.1 nM.

Consider `COc1c(OCCc2ccc(Oc3ccnc(C(F)(F)F)c3)cc2)nc(=O)n2c1N1CC3CC1(C3)C2` [Example 188], for which the IC50 amounted to 9.2 nM.

Take `COc1c(OCCc2ccc(Oc3ccc(Cl)c(C(F)(F)F)c3)c(F)c2)nc(=O)n2c1N1CC3CC1(C3)C2` [Example 187, 3-(4-(4-chloro-3-(trifluoromethyl)phenoxy)-3-fluorophenethoxy)-4-methoxy-7,8-dihydro-1H,6H,9H-7,8a-methanopyrrolo[1′,2′:3,4] imidazo[1,2-c]pyrimidin-1-one]: the IC50 was 7.8 nM.

As to `CC12COCCN1c1cc(OCc3cc(F)c(Oc4ccc(Cl)c(C(F)(F)F)c4)c(F)c3)nc(=O)n1C2` (stereo not shown) [Example 82, 7-((4-(4-chloro-3-(trifluoromethyl)phenoxy)-3,5-difluorobenzyl)oxy)-11a-methyl-3,4,11,11a-tetrahydro-1H,9H-pyrimido[6′,1′:2,3]imidazo [5,1-c][1,4]oxazin-9-one], the IC50 was 2 nM.

Consider `CN1C(=O)[C@]23C[C@H]1CN2c1cc(OCc2ccc(Oc4ccc(Cl)c(C(F)(F)F)c4)c(C#N)c2)nc(=O)n1C3` [Example 168], for which the IC50 was determined as 3.6 nM.

As for `CCC12CCCCN1c1cc(OCc3cc(F)c(Oc4ccc(C(F)(F)F)nc4)c(F)c3)nc(=O)n1C2` (stereo not shown) [Example 76, 3-((3,5-difluoro-4-((6-(trifluoromethyl)pyridin-3-yl)oxy)benzyl)oxy)-9a-ethyl-6,7,8,9,9a,10-hexahydro-1H-pyrido[1′,2′:3,4]imidazo [1,2-c]pyrimidin-1-one], the IC50 worked out at 42.2 nM.
